Measured values taken from ChEMBL document CHEMBL5442175, “EUbOPEN Chemogenomics Library - PDSP Secondary Binding” (2024).

What was measured:
D(1B) dopamine receptor = D(1B) dopamine receptor (Homo sapiens, UniProt P21918); assay: (§1) PDSP Secondary Binding target: DRD5 - Compounds are tested at 10 uM concentration, plate are incubated at room temperature in the dark for 90 minutes. Reaction are stopped by vacuum filtration onto 0.3% polyethyleneimine soaked filter mats using Filtermate harvester. Scintillation cocktail is then melted onto microwave-dried filters on a hot plate and the radio activity is counted in Microbia counter.
[1] = target: 5-hydroxytryptamine receptor 1D (Homo sapiens, UniProt P28221); assay: as §1, with “HTR1D” for “DRD5”
[2] = target: 5-hydroxytryptamine receptor 7 (Homo sapiens, UniProt P34969); assay: as §1, with “HTR7” for “DRD5”
[3] = target: Sodium-dependent noradrenaline transporter (Homo sapiens, UniProt P23975); assay: as §1, with “SLC6A2” for “DRD5”
[4] = target: Sigma non-opioid intracellular receptor 1 (Homo sapiens, UniProt Q99720); assay: as §1, with “SIGMAR1” for “DRD5”
[5] = target: T1, Alpha-1B adrenergic receptor (Homo sapiens, UniProt P35368); assay: as §1, with “ADRA1B” for “DRD5”
T1 sequence (P35368 whole entry): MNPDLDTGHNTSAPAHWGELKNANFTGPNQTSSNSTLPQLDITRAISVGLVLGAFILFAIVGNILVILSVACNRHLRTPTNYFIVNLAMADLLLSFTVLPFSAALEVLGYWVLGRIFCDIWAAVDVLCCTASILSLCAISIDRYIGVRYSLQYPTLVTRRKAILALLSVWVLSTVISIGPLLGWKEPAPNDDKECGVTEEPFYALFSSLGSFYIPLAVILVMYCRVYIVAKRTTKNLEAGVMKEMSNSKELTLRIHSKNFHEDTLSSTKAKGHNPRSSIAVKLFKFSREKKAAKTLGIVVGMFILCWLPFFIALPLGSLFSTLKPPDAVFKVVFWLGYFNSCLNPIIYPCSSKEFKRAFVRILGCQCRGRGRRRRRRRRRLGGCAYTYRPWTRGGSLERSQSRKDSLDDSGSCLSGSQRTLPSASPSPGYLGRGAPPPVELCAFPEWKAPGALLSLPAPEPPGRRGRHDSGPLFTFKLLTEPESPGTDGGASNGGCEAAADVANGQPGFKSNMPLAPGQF

D(3) dopamine receptor = D(3) dopamine receptor (Homo sapiens, UniProt P35462); assay: as §1, with “DRD3” for “DRD5”
[6] = target: T2, Alpha-1D adrenergic receptor (Homo sapiens, UniProt P25100); assay: as §1, with “ADRA1D” for “DRD5”
T2 sequence (P25100 whole entry): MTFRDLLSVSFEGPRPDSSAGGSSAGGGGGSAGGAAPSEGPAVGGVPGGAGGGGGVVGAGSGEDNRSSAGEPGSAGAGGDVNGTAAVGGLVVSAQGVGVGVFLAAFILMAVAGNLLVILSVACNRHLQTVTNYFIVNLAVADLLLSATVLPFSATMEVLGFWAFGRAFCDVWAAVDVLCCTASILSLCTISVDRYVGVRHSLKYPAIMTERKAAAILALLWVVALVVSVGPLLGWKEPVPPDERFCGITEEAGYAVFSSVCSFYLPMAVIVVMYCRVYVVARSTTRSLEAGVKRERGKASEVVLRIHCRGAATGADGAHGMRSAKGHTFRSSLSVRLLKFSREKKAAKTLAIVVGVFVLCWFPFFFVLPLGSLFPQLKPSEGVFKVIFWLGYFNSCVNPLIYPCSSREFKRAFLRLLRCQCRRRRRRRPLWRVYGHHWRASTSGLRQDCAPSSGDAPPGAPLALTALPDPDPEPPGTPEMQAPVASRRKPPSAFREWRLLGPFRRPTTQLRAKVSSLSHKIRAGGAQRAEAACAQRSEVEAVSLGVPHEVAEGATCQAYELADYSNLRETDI

[7] = target: 5-hydroxytryptamine receptor 2A (Homo sapiens, UniProt P28223); assay: as §1, with “HTR2A” for “DRD5”
[8] = target: 5-hydroxytryptamine receptor 6 (Homo sapiens, UniProt P50406); assay: as §1, with “HTR6” for “DRD5”
[9] = target: T3, Muscarinic acetylcholine receptor M1 (Homo sapiens, UniProt P11229); assay: as §1, with “CHRM1” for “DRD5”
T3 sequence (P11229 whole entry): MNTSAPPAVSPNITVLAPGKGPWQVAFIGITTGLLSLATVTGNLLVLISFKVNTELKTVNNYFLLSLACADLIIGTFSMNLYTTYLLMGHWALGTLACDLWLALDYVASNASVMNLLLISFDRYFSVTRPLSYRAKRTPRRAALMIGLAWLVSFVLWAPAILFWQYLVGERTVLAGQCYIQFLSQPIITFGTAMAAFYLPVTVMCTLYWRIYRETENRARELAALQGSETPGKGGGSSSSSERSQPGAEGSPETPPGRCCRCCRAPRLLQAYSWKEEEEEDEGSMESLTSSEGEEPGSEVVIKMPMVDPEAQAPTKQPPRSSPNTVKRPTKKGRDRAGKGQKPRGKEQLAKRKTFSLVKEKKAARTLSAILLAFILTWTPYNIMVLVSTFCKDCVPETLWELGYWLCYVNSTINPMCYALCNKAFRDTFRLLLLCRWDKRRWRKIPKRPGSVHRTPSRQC

[10] = target: Muscarinic acetylcholine receptor M3 (Homo sapiens, UniProt P20309); assay: as §1, with “CHRM3” for “DRD5”
D(2) dopamine receptor = D(2) dopamine receptor (Homo sapiens, UniProt P14416); assay: as §1, with “DRD2” for “DRD5”
[11] = target: T4, 5-hydroxytryptamine receptor 3A (Homo sapiens, UniProt P46098); assay: as §1, with “HTR3A” for “DRD5”
T4 sequence (P46098 whole entry): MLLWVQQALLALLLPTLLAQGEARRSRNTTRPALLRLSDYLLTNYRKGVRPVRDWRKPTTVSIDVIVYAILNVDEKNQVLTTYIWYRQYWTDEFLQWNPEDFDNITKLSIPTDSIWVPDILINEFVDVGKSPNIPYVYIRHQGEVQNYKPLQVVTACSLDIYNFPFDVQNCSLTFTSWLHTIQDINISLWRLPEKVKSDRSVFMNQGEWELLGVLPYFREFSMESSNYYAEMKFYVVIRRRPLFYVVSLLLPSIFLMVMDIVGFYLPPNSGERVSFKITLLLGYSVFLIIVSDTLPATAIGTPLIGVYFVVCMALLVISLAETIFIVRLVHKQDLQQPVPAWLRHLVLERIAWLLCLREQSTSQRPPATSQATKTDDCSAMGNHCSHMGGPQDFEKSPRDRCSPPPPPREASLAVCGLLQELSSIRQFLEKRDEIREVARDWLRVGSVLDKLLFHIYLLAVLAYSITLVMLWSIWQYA

Histamine H2 receptor = Histamine H2 receptor (Homo sapiens, UniProt P25021); assay: as §1, with “HRH2” for “DRD5”
Sequence of Histamine H2 receptor (P25021 whole entry): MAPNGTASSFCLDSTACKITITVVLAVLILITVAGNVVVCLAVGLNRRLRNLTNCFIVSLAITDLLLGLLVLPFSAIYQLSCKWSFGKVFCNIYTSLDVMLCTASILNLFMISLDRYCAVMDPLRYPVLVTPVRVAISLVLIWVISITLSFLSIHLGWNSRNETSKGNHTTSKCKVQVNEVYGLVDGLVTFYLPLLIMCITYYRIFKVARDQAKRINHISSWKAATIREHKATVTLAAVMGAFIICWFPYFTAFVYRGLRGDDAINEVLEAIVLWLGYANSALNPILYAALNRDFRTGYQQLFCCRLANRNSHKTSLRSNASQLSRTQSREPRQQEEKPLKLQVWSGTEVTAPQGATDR

Sequence of Sodium-dependent noradrenaline transporter (P23975 whole entry): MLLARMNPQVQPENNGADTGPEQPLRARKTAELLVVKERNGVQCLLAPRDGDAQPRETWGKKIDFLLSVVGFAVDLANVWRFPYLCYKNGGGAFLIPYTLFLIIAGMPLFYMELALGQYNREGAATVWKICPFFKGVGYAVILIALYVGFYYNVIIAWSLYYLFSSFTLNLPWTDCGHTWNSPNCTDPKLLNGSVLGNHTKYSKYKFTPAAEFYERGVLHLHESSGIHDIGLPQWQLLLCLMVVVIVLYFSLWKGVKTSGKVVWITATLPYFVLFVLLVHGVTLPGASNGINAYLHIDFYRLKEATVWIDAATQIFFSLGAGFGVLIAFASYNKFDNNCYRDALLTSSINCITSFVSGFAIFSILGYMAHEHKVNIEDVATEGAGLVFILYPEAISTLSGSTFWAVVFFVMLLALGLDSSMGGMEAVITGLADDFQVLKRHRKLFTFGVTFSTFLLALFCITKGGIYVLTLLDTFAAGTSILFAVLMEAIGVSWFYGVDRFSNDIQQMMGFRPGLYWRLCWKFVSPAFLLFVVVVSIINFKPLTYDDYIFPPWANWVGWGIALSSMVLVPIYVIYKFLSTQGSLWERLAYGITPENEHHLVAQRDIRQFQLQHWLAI
Sequence of Muscarinic acetylcholine receptor M3 (P20309 whole entry): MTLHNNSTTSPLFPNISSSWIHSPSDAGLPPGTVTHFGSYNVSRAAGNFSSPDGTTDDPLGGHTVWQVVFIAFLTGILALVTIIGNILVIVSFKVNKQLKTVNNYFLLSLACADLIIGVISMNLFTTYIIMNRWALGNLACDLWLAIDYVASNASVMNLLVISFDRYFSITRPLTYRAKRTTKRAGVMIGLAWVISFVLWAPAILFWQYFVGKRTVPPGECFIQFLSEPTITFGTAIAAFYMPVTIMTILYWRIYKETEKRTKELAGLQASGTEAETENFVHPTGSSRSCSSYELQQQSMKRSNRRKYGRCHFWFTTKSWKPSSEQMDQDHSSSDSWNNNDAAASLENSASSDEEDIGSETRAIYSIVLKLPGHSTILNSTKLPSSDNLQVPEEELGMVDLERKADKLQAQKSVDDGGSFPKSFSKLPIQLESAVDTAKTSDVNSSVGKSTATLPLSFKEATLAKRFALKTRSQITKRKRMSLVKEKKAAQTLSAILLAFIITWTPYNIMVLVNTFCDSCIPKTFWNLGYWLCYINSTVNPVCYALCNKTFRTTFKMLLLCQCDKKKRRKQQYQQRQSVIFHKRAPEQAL
Sequence of D(3) dopamine receptor (P35462 whole entry): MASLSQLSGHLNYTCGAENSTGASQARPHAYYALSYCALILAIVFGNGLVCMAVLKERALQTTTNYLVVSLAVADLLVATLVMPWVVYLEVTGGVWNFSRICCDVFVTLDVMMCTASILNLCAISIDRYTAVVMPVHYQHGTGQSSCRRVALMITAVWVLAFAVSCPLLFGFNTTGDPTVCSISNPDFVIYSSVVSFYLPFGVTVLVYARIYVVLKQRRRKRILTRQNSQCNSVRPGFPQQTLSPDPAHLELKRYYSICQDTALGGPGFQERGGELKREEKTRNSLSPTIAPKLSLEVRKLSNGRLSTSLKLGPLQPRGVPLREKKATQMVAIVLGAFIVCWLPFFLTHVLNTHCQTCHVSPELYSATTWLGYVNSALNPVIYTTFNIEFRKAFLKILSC
Sequence of D(2) dopamine receptor (P14416 whole entry): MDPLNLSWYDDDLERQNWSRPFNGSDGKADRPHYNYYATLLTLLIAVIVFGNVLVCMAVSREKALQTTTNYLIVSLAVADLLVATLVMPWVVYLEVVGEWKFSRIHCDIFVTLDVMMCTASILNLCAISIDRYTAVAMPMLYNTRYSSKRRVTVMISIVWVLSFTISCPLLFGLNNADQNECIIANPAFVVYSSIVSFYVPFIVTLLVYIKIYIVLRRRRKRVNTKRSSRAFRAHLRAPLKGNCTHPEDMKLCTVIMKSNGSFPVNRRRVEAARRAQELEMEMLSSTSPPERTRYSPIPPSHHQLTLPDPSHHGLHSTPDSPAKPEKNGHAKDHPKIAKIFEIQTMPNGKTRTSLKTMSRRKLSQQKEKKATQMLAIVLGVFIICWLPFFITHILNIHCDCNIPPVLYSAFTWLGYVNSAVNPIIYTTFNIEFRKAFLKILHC
Sequence of D(1B) dopamine receptor (P21918 whole entry): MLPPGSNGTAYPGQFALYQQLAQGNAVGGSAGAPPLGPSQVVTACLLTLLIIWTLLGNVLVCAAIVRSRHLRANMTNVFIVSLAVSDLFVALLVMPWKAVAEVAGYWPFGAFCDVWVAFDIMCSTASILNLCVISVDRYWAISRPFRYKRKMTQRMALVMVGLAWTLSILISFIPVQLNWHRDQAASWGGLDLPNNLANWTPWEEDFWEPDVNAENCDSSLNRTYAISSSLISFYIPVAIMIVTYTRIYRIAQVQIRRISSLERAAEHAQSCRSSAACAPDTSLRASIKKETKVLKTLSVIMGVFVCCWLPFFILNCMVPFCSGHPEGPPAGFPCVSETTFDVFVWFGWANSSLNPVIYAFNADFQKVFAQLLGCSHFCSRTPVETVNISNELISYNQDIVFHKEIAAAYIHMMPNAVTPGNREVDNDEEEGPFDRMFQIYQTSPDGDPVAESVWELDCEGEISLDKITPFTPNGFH
Sequence of Sigma non-opioid intracellular receptor 1 (Q99720 whole entry): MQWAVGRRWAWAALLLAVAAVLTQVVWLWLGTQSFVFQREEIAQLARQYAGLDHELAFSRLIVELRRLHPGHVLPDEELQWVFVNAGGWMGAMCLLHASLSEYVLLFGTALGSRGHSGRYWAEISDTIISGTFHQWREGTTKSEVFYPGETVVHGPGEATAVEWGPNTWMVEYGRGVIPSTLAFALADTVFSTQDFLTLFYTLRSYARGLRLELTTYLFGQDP
Sequence of 5-hydroxytryptamine receptor 7 (P34969 whole entry): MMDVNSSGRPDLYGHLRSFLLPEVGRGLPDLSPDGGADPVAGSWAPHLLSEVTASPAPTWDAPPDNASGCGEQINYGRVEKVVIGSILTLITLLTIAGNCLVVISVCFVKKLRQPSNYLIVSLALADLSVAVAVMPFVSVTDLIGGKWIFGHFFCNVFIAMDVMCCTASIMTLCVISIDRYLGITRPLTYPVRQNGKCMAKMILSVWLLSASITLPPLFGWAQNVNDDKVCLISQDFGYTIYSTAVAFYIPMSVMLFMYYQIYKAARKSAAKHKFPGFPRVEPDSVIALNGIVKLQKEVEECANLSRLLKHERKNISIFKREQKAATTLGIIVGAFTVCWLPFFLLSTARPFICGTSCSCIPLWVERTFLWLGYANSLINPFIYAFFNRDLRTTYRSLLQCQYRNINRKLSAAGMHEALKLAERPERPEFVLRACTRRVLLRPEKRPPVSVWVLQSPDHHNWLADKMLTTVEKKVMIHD
Sequence of 5-hydroxytryptamine receptor 1D (P28221 whole entry): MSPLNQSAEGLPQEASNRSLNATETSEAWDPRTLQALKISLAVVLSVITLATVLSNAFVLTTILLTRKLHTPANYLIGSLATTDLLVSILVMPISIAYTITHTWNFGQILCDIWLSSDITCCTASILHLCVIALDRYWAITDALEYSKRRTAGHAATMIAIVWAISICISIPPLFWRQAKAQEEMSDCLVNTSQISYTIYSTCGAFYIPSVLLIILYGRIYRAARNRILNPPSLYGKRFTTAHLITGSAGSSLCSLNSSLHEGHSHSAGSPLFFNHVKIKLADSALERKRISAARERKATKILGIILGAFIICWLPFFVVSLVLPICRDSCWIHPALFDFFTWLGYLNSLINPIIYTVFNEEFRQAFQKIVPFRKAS
Sequence of 5-hydroxytryptamine receptor 2A (P28223 whole entry): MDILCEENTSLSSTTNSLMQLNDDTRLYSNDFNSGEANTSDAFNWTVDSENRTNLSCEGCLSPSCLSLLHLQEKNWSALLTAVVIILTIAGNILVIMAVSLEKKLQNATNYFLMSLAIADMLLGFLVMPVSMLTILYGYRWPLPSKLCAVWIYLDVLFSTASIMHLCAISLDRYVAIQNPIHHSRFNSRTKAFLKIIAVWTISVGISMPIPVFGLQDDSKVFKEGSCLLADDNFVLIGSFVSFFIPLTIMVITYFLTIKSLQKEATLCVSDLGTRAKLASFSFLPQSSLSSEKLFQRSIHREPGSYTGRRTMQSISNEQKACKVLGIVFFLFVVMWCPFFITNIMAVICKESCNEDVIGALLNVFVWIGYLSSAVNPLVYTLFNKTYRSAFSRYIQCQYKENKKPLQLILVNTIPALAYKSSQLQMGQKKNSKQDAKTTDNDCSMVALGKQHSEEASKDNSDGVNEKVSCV
Sequence of 5-hydroxytryptamine receptor 6 (P50406 whole entry): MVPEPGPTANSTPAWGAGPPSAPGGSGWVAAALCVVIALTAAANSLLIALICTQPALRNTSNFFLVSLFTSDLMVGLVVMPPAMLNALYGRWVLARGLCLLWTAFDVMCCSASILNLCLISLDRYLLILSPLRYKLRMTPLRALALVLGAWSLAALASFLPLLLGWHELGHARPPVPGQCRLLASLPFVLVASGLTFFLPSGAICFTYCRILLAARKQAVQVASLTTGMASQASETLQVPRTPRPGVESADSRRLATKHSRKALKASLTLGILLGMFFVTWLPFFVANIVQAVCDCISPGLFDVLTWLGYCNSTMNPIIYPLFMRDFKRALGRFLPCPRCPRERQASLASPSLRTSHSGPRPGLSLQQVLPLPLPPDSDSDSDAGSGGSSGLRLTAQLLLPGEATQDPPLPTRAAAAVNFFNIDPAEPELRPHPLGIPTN

`CN1C2CCC1CC(OC(c1ccc(F)cc1)c1ccc(F)cc1)C2` (stereo not given) showed a Ki (D(1B) dopamine receptor) of 393 nM, a Ki [1] of 1130 nM and a Ki [2] of 126 nM. It also gave a Ki [3] of 769 nM, a Ki [4] of 98.8 nM and a Ki [5] of 263 nM. For the same compound, the Ki (D(3) dopamine receptor) was 116 nM, the Ki [6] was 58.2 nM and the Ki [7] was 17.4 nM. The Ki [8] was 374 nM, the Ki [9] was 9.74 nM and the Ki [10] was 5.82 nM. It also gave a Ki (D(2) dopamine receptor) of 767 nM, a Ki [11] of 2070 nM and a Ki (Histamine H2 receptor) of 594 nM.
